Source: patent US6982082B1, “Gene therapy by cell specific targeting” (President and Fellows of Harvard College, priority 1996, dated 2006)

How the values were obtained:
[1] = target: FKBP12 F36V (FKBP^t−) (Homo sapiens, UniProt P62942, F37V); test: Scatchard analysis of binding of radiolabeled protein to FKBP^t−
[2] = target: FKBP (Homo sapiens, UniProt P62942); test: binding to FKBP, same assay; conditions: in words
[3] = tested on: signaling in cells without FKBP containing the compensatory mutation; test: signaling in cells not transfected with compensatory FKBP; format: cell-based
[4] = tested on: NFAT signaling in Jurkat cells, CypA wild type + NFAT-SEAP; test: cellular NFAT-signaling assay (NFAT-SEAP reporter), Jurkat cells coexpressing wild type CypA; format: cell-based
Text: (§1) FIG. 1 is a graph showing the cellular assay for calcineurin-mediated NFAT-signalling.
(§2) Since it is the composite surface of Cyp-CsA that binds to and thereby inhibits the phosphatase activity of Cn and as the modifications to both the receptor and ligand were expected to be buried in the complex, it was expected that these new receptor-ligand combinations would have the ability to inhibit calcineurin (Cn) and thus NFAT mediated gene activation. This hypothesis was confirmed by using a cellular assay in which NFAT-signaling was measured on a reporter gene, as described below.
(§3) CypA and mutants were sub-cloned from pGEX based expression vectors into pBJ5, a eukaryotic expression vector containing an N-terminal FLAG epitope tag. The signaling assay was performed as previously described in Belshaw, P. J., Spencer, D. M., Crabtree, G. R. & Schreiber, S. L., Chemistry & Biology, 3:731–8 (1996). Briefly 10^7 Jurkat cells were electroporated with NFAT-SEAP reporter plasmid (1 μg) alone or in combination with a Cyp expression vector (5 μg). After 20 hours, cells were stimulated in 96 well plates with phorbol ester (PMA)(50 ng/mL) and ionomycin (1 μM), which mimics T cell activation and receptor signaling. […] Twenty-four hours later, cells were assayed for SEAP activity. The data for each transfection are presented as percent SEAP activity relative to the signal for [CpSar11-CsA]=0.

[5] = target: T1, CypA wild type (Homo sapiens, UniProt P62937); test: direct fluorescence binding assay, wild type CypA; conditions: in words
T1 construct: made in house; host or cells: E. coli
Description: (§4) To determine CpSar11-CsA's binding characteristics, both the unmodified CypA and the modified CypA (S99T, F113G, C115M) (CypAgtm) was overexpressed in E. coli and purified according to standard techniques. The binding constants for CpSar11-CsA for each receptor was determined with a direct fluorescence binding assay according to the procedure described in Belshaw, P. J., Schoepher, J. G., Lui, K-Q., Morrison, K. L. & Schreiber, S. L., Angew Chem. Int. Ed. Engl. 34:2129–32 (1995).
(§5) Kds were determined using a direct fluorescence binding assay as previously described in Belshaw et al., supra.

[6] = target: T2, CypA (S99T, F113G, C115M) (CypAgtm) (Homo sapiens, UniProt P62937, C115M/F113G/S99T); test: direct fluorescence binding assay, modified CypA
T2 construct: made in house; host or cells: E. coli
Description: as §4, §5

[7] = tested on: NFAT signaling in Jurkat cells, NFAT-SEAP alone (endogenous cyclophilins); test: cellular NFAT-signaling assay, Jurkat cells transfected with NFAT-SEAP alone; format: cell-based
Description: as §1
as §3, with “activity.” for “activity. The data for each transfection are presented as percent SEAP activity relative to the signal for [CpSar11-CsA]=0.”

[8] = tested on: NFAT signaling in Jurkat cells, CypAgtm + NFAT-SEAP; test: cellular NFAT-signaling assay (NFAT-SEAP reporter), Jurkat cells expressing CypAgtm; format: cell-based
Text: as §1, §2, §3

[9] = tested on: NFAT signaling in cells expressing CypA (S99T, F113A) (CypAat); test: cellular NFAT-signaling assay, cells expressing CypAat; format: cell-based
Description: as §3
Presumably this was due to formation of endogenous Cyp-MeIle11-CsA complexes that inhibited Cn.

T2 sequence (P62937 whole entry S99T/F113G/C115M): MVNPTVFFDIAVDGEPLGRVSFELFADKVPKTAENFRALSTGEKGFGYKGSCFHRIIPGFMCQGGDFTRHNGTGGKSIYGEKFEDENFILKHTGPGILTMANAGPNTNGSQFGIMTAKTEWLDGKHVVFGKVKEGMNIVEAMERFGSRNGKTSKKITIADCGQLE
FKBP12 F36V (FKBP^t−), sequence (P62942 whole entry F37V): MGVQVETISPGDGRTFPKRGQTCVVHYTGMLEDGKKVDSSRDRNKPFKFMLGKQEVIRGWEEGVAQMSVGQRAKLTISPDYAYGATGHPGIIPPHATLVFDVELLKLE
T1 sequence (P62937 whole entry): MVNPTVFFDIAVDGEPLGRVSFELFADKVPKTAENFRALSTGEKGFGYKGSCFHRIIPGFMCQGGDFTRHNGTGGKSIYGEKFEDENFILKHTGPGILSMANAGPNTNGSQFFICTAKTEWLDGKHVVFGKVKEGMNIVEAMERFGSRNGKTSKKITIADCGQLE
FKBP, sequence (P62942 whole entry): as the sequence (P62942 whole entry F37V) above, with V37F counted along it

Compound: 9-S-methoxy-FK506
- Kd ([1]; Scatchard analysis): 5 nM
- binding to FKBP12F36V ([1]; in words): does bind
- binding to endogenous FKBP [2]: does not bind
- effect on signaling [3]: no effect on signaling

Compound: C/C=C/C[C@@H](C)[C@@H](O)[C@H]1C(=O)N[C@@H](CC)C(=O)N(C)CC(=O)N(C)[C@@H](CC(C)C)C(=O)N[C@@H](C(C)C)C(=O)N(C)[C@@H](CC(C)C)C(=O)N[C@@H](C)C(=O)N[C@H](C)C(=O)N(C)[C@@H](CC(C)C)C(=O)N(C)[C@@H](CC(C)C)C(=O)N(C)[C@@H](C2CCCC2)C(=O)N1C [CpSar11-CsA, alpha-cyclopentyl, sarcosine11-CsA]
- IC50 ([4]; CypA wild type + NFAT-SEAP, PMA and ionomycin stimulation, read-out: IC50 in Cellular NFAT-Signalling): > 400 nM
- effect on reporter gene expression ([4]; concentrations up to 400 nM, cells coexpressing a wild type cyclophilin): little or no effect
- affinity for wild type CypA [5]: little affinity
- Kd ([6]; CypAgtm, read-out: Binding Constant Kd): 9 nM
- affinity for CypAgtm ([6]; in words): high affinity
- effect on reporter gene expression ([7]; concentrations up to 400 nM, cells expressing endogenous cyclophilins alone): little or no effect
- IC50 ([8]; CypAgtm + NFAT-SEAP, PMA and ionomycin stimulation, read-out: IC50 in Cellular NFAT-Signalling): 25 nM
- inhibition of NFAT signaling ([8]; cells expressing CypAgtm): potently inhibited NFAT signaling

Compound: MeIle11-CsA
- inhibition of NFAT signaling [9]: potently inhibited NFAT signaling
- inhibition of NFAT signaling ([7]; cells transfected with the NFAT reporter gene alone (data not shown)): still inhibited NFAT signaling
